Three compounds from patent US9212189B2, “Fluorescent probes for reactive sulfur species” (THE REGENTS OF THE UNIVERSITY OF CALIFORNIA, priority 2011, dated 2015) can be followed below.

The nature of data set [1]: Fluorescence response of 4-azido-1,8-naphthalimide to H2S. Here is the method:
FIG. 8. Fluorescence response of 10 μM 4-azido-1,8-naphthalimide to 100 μM H2S. Data were acquired at 25° C. in 20 mM HEPES buffered to pH 7.4 with excitation at λex=470 nm. Emission was collected between 495 and 650 nm. Time points represent 0, 15, 30, 45, and 60 min (red trace) after addition of 100 μM H2S. Reactions are not complete at these time points.

Data set [2] in a line: Spectroscopic properties (absorbance, emission, quantum yield). The data set is classed as physicochemical. The conditions noted are these: for ε (extinction coefficient) of reaction product: at λmax; for Φ (quantum yield) of reaction product: fluorescein as standard, 20 mM HEPES pH 7.4; for λmax (absorbance) of reaction product: new absorbance band in the visible region; for λem of reaction product: product formed from 10 μM probe with 100 μM NaSH. Here is the method: Millipore water was used to prepare all aqueous solutions. All spectroscopic measurements were performed in 20 mM HEPES buffer, pH 7.4. Fluorescence spectra were recorded on a Photon Technology International Quanta Master 4 L-format scanning spectrofluorometer (Lawrenceville, N.J.) equipped with an LPS-220B 75-W xenon lamp and power supply, A-1010B lamp housing with an integrated igniter, switchable 814 photon-counting/analog photomultiplier detection unit, and MD5020 motor driver. Samples for emission measurements were contained in 1-cm×0.1-cm quartz (1.5 mL volume, Starna, Atascadero, Calif.). Absorption spectra were recorded using a Varian Cary 50 spectrophotometer (Walnut Creek, Calif.).
FIG. 1. Absorbance spectra of (a) 10 μM SF1 (b) 10 μM SF2, and 10 μM of rhodamine products (c) tert-butoxycarbonyl-rhodamine 110 and (d) morpholinourea-rhodamine 110.
Quantum yields were determined using fluorescein as a standard according to a published method.^S3 For each compound and fluorescein, the absorbance spectra were measured within an absorbance range of 0.01 to 0.1. The quantum yield was calculated according to the equation: Φsample=Φstandard (Gradsample/Gradstandard)[…], where Φ is the quantum yield, Φstandard=0.95 in 0.1 M NaOH, Grad is the slope of the plot of […], and η is the refractive index of the solvent.

With `[N-]=[N+]=Nc1ccc2c3c(cccc13)C(=O)NC2=O` [4-Azido-1,8-naphthalimide], the “emission compared with SF1 and SF2” value in data set [1] is recorded as “red-shifted emission”.

For the compound “morpholinourea-rhodamine 110 [Product from SF2]”, in data set [2], the “ε (extinction coefficient) of reaction product” value was 75,000 M^−1cm^−1, the “Φ (quantum yield) of reaction product” value came out at 0.60, the “λmax (absorbance) of reaction product” value came out at 492 nm and the “λem of reaction product” value is 525 nm.

Regarding “tert-butoxycarbonyl-rhodamine 110 [Product from SF1]”, in data set [2], the “ε (extinction coefficient) of reaction product” value is reported as 61,000 M^−1cm^−1, the “Φ (quantum yield) of reaction product” value is 0.51, the “λmax (absorbance) of reaction product” value worked out at 490 nm and the “λem of reaction product” value came to 525 nm.
